“Also recorded” adds a separate entry of the source.
Columns and labels:
[1] = tested on: mice; assay: Toxicity of LFM-A13 in mice; conditions: mice N=160, 12.5 mg/kg to 100 mg/kg i.p.
From the text: For histopathologic studies, tissues were fixed in 10% neutral buffered formalin, dehydrated, and embedded in paraffin by routine methods.

[2] = tested on: platelets; assay: Thrombin-induced platelet aggregation (aggregometer); assay type: cell-based, human; conditions: thrombin 0.1 U/mL
Procedure: Platelet aggregation with respect to control was monitored in a Chronolog Model 560 Dual Chamber Platelet Aggregometer.
Controls were treated with vehicle (PBS supplemented with 1% DMSO) alone. The treated PRP samples were diluted 1:4 with sterile normal saline and platelets were stimulated with collagen (2 μg/mL or 5 μg/mL, Chronolog Inc., Philadelphia, Pa.) or thrombin (0.1 U/mL, Chronolog Inc., Philadelphia, Pa.) as agonists under stirred conditions. Platelet aggregation was monitored in a platelet aggregometer (Model 560 Dual Chamber-Instrument, Chronolog Ind., Philadelphia, Pa.) for 5 minutes.

[3] = tested on: PLCγ2; assay: Collagen-induced PLCγ2 tyrosine phosphorylation in platelets (immunoprecipitation/Western blot); assay type: cell-based, human; conditions: 100 μM, 30 min pretreatment; 2 μg/mL collagen
From the text: The membrane was stripped and re-probed with antibodies raised against PLCγ2. An increase in the level of phosphorylated PLCγ2 was seen between 30 and 45 seconds following collagen stimulation.

[4] = target: T1, TEC kinase (Homo sapiens, UniProt P42680); assay: TEC immune complex kinase assay from collagen-stimulated platelets; assay type: cell-based
T1 sequence (P42680 1-631): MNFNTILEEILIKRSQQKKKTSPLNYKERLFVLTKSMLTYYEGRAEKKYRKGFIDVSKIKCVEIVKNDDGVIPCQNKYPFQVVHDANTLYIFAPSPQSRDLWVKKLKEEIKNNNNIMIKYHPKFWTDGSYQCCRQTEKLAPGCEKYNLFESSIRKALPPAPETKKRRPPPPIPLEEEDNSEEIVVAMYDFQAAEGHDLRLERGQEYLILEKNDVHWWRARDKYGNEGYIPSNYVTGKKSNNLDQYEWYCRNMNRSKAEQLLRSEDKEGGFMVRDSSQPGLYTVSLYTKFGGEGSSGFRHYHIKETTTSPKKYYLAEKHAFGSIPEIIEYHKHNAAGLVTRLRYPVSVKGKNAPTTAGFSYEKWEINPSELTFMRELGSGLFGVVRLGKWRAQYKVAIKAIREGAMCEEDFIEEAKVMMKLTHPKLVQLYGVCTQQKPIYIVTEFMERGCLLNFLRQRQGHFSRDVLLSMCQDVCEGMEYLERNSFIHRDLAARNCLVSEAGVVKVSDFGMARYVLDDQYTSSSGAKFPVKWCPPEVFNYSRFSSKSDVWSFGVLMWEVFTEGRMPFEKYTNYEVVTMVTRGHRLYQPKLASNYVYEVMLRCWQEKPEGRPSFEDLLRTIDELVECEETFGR
Procedure: Platelets were isolated from platelet rich plasma (PRP) purchased from the Memorial Blood Bank (Minneapolis, Minn.) as previously described (Asselin et al. 1997) and used at a concentration of 3×10^9 cells/mL in a modified Tyrode's buffer (137 mM NaCl, 2.7 mM KCl, 0.9 mM MgCl2, 5.5 mM glucose, 3.3 mM NaH2PO4, 3.8 mM Hepes, pH 7.4). […] Platelets were then stimulated at 37° C. with 2 μg/mL (or 10 μg/mL) collagen or 0.1 U/mL thrombin (Chronolog Inc., Philadelphia, Pa.). Stimulation was stopped and platelets were lysed at the indicated time points by adding ice cold 3x Triton X-100 lysis buffer (150 mM NaCl, 15 mM EGTA, 3% Triton X-100, 3% Sodium deoxycholate, 0.3% SDS, 3 mM PMSF, 3 mM Na3 VO4, 60 μg/mL leupeptin, 60 μg/mL aprotinin, 50 mM Tris-HCl pH 7.4) and incubating for 1 hour on ice. […]
For each drug concentration, a BTK/TEC kinase activity index as determined by comparing the ratios of the kinase activity in phosphorimager units (PIU) and density of the protein bands in densitometric scanning units (DSU) to those of the baseline sample and using the formula: Activity Index=[PIU of kinase band/DSU of BTK/TEC protein band]test sample: [PIU of kinase band/DSU of BTK/TEC protein band]baseline control sample (FIGS. 1A-1D).

[5] = tested on: platelets; assay: Serotonin release from collagen-stimulated platelets; assay type: cell-based, human; conditions: LFM-A13 treated, N=4
Procedure: Release of serotonin from collagen (10 and 20 μg/mL)-stimulated platelets was measured using a serotonin detection kit (Immunotech, Marseille, France) according to the manufacturer's specifications. Sonicated platelets were used for measurement of the total serotonin content of platelets.

[6] = tested on: mice; assay: Platelet plug formation and clotting time after retro-orbital venupuncture in mice; assay type: in vivo; conditions: for clotting time % Control / Mean Clotting Time: C57BL/6 mice; for Mean Clotting Time: n = 3
Procedure: Mice were placed in a tube holder and tail bleeding was performed with a 2 mm cut from the protruding tail tip, the tail was placed vertically into 10 mL normal saline in a 37° C. water bath and bleeding times determined as previously described (Teng et al., 1997). Platelet plug formation and clotting times on the eye after retro-orbital venupuncture were evaluated using published methods (Sheu et al., 1995).
The blood of XID mice clotted approximately two minutes later than the CBA control mice. Following this pattern, blood from chronically treated mice also clotted two minutes later than control. […]

[7] = Pharmacokinetics in mice (HPLC plasma levels); conditions: mouse, in vivo
Procedure: All collected blood samples were heparinized and centrifuged at 7,000xg for 5 minutes in a microcentrifuge to obtain plasma. The plasma samples were stored at −20° C. until analysis.
The analytical column was equilibrated and eluted under isocratic conditions utilizing a flow rate of 1.0 mL/min at ambient temperature. The wavelength of detection was set at 294 nm. Peak width, response time, and slit were set at >0.03 min, 0.55 sec, and […], respectively. […] Following centrifugation at 300xg for 5 minutes, the supernatant was used for HPLC analysis using a system comprised of a Hewlett Packard (HP) series 1100 instrument equipped with an automated electronic degasser, a quaternary pump, an autosampler, an automatic thermostatic column compartment, diode array detector and a computer with a Chemstation software program for data analysis (Chen and Uckun, 1999; Malaviya et al., 2000). All extraction procedures were carried out at room temperature.
The unweighed linear regression analysis of the standard curves was performed by using the CA-Cricket Graph III computer program, Version 1.0 (Computer Association, Inc., Islandia, N.Y.). […] Pharmacokinetic modeling and pharmacokinetic parameter estimations were carried out using the pharmacokinetics software, WinNonlin Program, Professional version 3.0 (Pharsight Inc., Mountain view, Calif.) (Chen and Uckun, 1999; Malaviya et al. 2000; Uckun et al., 1999).
The elimination half-life was estimated by linear regression analysis of the terminal phase of the plasma concentration time profile. The area under the concentration time curve (AUC) was calculated by the linear trapezoidal rule between the first (0 hours) and last sampling time plus C/k, where C is the concentration at the last sampling time and k is the elimination rate constant. The systemic clearance (CL) was determined by dividing the does by the AUC (Chen and Uckun, 199; Malaviya et al., 2000; Uckun et al., 1999).
A one-compartment, first order pharmacokinetic model was fit into the pharmacokinetic data. The numbers represent the average values estimated from the composite plasma concentration-time curve for pooled data. The mean±SEM values are indicated in parentheses. The values for the apparent volume of distribution (Vc) and systemic clearance (CL) were not corrected for bioavailability. t½=terminal elimination half-life; tmax=the time required to reach the maximum plasma drug concentration after i.p. administration.

[8] = 40 mg/kg, after retroorbital venupuncture

C/C(O)=C(\C#N)C(=O)Nc1cc(Br)ccc1Br [LFM-A13, α-cyano-β-hydroxy-β-methyl-N-(2,5-dibromophenyl)-propenamide]
toxicity, single i.p. bolus [1]: not toxic | thrombin-induced platelet aggregation, PRP ([2]; PRP treated 20 min or 24 hours): No significant effect | effect on thrombin-induced platelet aggregation ([2]; up to 1000 μM): No significant effect; also recorded: not impaired | collagen-induced tyrosine phosphorylation of PLCγ2 [3]: no enhanced tyrosine phosphorylation of PLCγ2 was detected; also recorded: No phosphorylation of PLCγ2 was noted | collagen-induced stimulation of TEC kinase in platelets ([4]; collagen-stimulated platelets): prevented collagen-induced stimulation of TEC kinase | baseline activity of TEC in unstimulated platelets ([4]; unstimulated platelets): did not reduce the baseline activity of TEC | serotonin in platelet supernatants [5]: 369 ± 14 nM | clotting (eye clot) time [6, 8]: 2.6 ± 0.4 min | local platelet plug (eye plug) formation time [6, 8]: 45 ± 4 s | clotting time % Control ([6]; 25 mg/kg chronic 36 days): 231% | Mean Clotting Time ([6]; 25 mg/kg chronic 36 days): 3.7 min | clotting time % Control ([6]; 40 mg/kg acute 1 hour): 164% | Mean Clotting Time ([6]; 40 mg/kg acute 1 hour): 2.6 min | AUC ([7]; ip, 10 mg/kg): 66.3 ± 3 µM·h | Cmax ([7]; ip, 10 mg/kg): 94 ± 8 µM | AUC ([7]; ip, 20 mg/kg): 183 ± 14 µM·h | Cmax ([7]; ip, 20 mg/kg): 243 ± 16 µM | AUC ([7]; ip, 25 mg/kg): 308 ± 31 µM·h | Cmax ([7]; ip, 25 mg/kg): 383 ± 35 µM | AUC ([7]; ip, 40 mg/kg): 653 ± 47 µM·h | Cmax ([7]; ip, 40 mg/kg): 640 ± 44 µM | AUC ([7]; ip, 50 mg/kg): 1020 ± 31 µM·h | Cmax ([7]; ip, 50 mg/kg): 940 ± 16 µM | AUC ([7]; iv, 25 mg/kg): 384 ± 30 µM·h | Cmax ([7]; iv, 25 mg/kg): 731 ± 22 µM

Reference: patent publication US6589992B2, “Inhibiting collagen-induced platelet aggregation” (Parker Hughes Institute, priority 1999, dated 2003)
